Source: patent US12077503B2, “Substituted cyclic amides and their use as herbicides” (FMC CORPORATION, priority 2015, dated 2024)

Key:
Type in all cases: in vivo
[1] = test system: barnyardgrass (Echinochloa crus-galli); test: Test G Pre-Emergence Protocol; conditions: Echinochloa crus-galli, pre-emergence, 312 h, evaluated after 13 days; for pest or weed control at 15.625 g/ha: 15.625 g ai/ha; for pest or weed control at 15.625 g/ha / pest or weed control at 250 g/ha: read-out: Barnyardgrass damage rating (100=total damage to plant; 0=no damage to plant); for pest or weed control at 62.5 g/ha: 62.5 g ai/ha, 100=total damage to plant, 0=no damage to plant, read-out: Barnyardgrass damage rating; for pest or weed control at 250 g/ha: 250 g ai/ha
Method in brief: (§1)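 Pre-emergence spray, 15.625/62.5/250 g/ha, vehicle acetone:water 50:50 + 0.5% Tween 20, applied 1 d after sowing. Glasshouse 24/16° C, 14 h light, 65% RH, watered twice daily. Visual damage rating at 13 d, 0–100 scale.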

corn (Zea mays) [2] = test: Test G Pre-Emergence Protocol; conditions: Zea mays, pre-emergence, 312 h, evaluated after 13 days; for plant injury at 15.625 g/ha: 15.625 g ai/ha; for plant injury at 15.625 g/ha / plant injury at 250 g/ha: read-out: Corn damage rating (100=total damage to plant; 0=no damage to plant); for plant injury at 62.5 g/ha: 62.5 g ai/ha, 100=total damage to plant, 0=no damage to plant, read-out: Corn damage rating; for plant injury at 250 g/ha: 250 g ai/ha
Method in brief: as §1

[3] = test system: giant foxtail (Setaria faberi); test: Test G Pre-Emergence Protocol; conditions: Setaria faberi, pre-emergence, 312 h, evaluated after 13 days; for pest or weed control at 15.625 g/ha: 15.625 g ai/ha; for pest or weed control at 15.625 g/ha / pest or weed control at 250 g/ha: read-out: Foxtail, Giant damage rating (100=total damage to plant; 0=no damage to plant); for pest or weed control at 62.5 g/ha: 62.5 g ai/ha, 100=total damage to plant, 0=no damage to plant, read-out: Foxtail, Giant damage rating; for pest or weed control at 250 g/ha: 250 g ai/ha
Method in brief: as §1

[4] = test system: ivy-leaved morning glory (Ipomoea hederacea); test: Test G Pre-Emergence Protocol; conditions: Ipomoea, pre-emergence, 312 h, evaluated after 13 days; for pest or weed control at 15.625 g/ha: 15.625 g ai/ha; for pest or weed control at 15.625 g/ha / pest or weed control at 250 g/ha: read-out: Morningglory, Ivy-leaved damage rating (100=total damage to plant; 0=no damage to plant); for pest or weed control at 62.5 g/ha: 62.5 g ai/ha, 100=total damage to plant, 0=no damage to plant, read-out: Morningglory, Ivy-leaved damage rating; for pest or weed control at 250 g/ha: 250 g ai/ha
Method in brief: as §1

[5] = test system: redroot pigweed (Amaranthus retroflexus); test: Test G Pre-Emergence Protocol; conditions: Amaranthus retroflexus, pre-emergence, 312 h, evaluated after 13 days; for pest or weed control at 15.625 g/ha: 15.625 g ai/ha; for pest or weed control at 15.625 g/ha / pest or weed control at 250 g/ha: read-out: Pigweed, Redroot damage rating (100=total damage to plant; 0=no damage to plant); for pest or weed control at 62.5 g/ha: 62.5 g ai/ha, 100=total damage to plant, 0=no damage to plant, read-out: Pigweed, Redroot damage rating; for pest or weed control at 250 g/ha: 250 g ai/ha
Method in brief: as §1

[6] = test system: velvetleaf (Abutilon theophrasti); test: Test G Pre-Emergence Protocol; conditions: Abutilon theophrasti, pre-emergence, 312 h, evaluated after 13 days; for pest or weed control at 15.625 g/ha: 15.625 g ai/ha; for pest or weed control at 15.625 g/ha / pest or weed control at 250 g/ha: read-out: Velvetleaf damage rating (100=total damage to plant; 0=no damage to plant); for pest or weed control at 62.5 g/ha: 62.5 g ai/ha, 100=total damage to plant, 0=no damage to plant, read-out: Velvetleaf damage rating; for pest or weed control at 250 g/ha: 250 g ai/ha
Method in brief: as §1

[7] = test system: barnyardgrass (Echinochloa crus-galli); test: Test G Post-Emergence Protocol; conditions: Echinochloa crus-galli, post-emergence, 312 h, read-out: Barnyardgrass damage rating; for pest or weed control at 15.625 g/ha: 15.625 g ai/ha, evaluated after 13 days (100=total damage to plant; 0=no damage to plant); for pest or weed control at 62.5 g/ha: 62.5 g ai/ha; for pest or weed control at 62.5 g/ha / pest or weed control at 250 g/ha: evaluated after 13 days, 100=total damage to plant, 0=no damage to plant; for pest or weed control at 250 g/ha: 250 g ai/ha
Method in brief: (§2)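 Pot-grown seedlings, 8 days old, raised in a glasshouse at 24/16 °C day/night with 14 h light and 65% humidity, were sprayed post-emergence with test compound in acetone/water (50:50) plus 0.5% Tween 20 at 15.625, 62.5 or 250 g/ha. Damage was scored visually 13 days later on a 0–100 scale (100 = total damage).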

corn (Zea mays) [8] = test: Test G Post-Emergence Protocol; conditions: Zea mays, post-emergence, 312 h, read-out: Corn damage rating; for plant injury at 15.625 g/ha: 15.625 g ai/ha, evaluated after 13 days (100=total damage to plant; 0=no damage to plant); for plant injury at 62.5 g/ha: 62.5 g ai/ha; for plant injury at 62.5 g/ha / plant injury at 250 g/ha: evaluated after 13 days, 100=total damage to plant, 0=no damage to plant; for plant injury at 250 g/ha: 250 g ai/ha
Method in brief: as §2

[9] = test system: giant foxtail (Setaria faberi); test: Test G Post-Emergence Protocol; conditions: Setaria faberi, post-emergence, 312 h, read-out: Foxtail, Giant damage rating; for pest or weed control at 15.625 g/ha: 15.625 g ai/ha, evaluated after 13 days (100=total damage to plant; 0=no damage to plant); for pest or weed control at 62.5 g/ha: 62.5 g ai/ha; for pest or weed control at 62.5 g/ha / pest or weed control at 250 g/ha: evaluated after 13 days, 100=total damage to plant, 0=no damage to plant; for pest or weed control at 250 g/ha: 250 g ai/ha
Method in brief: as §2

[10] = test system: ivy-leaved morning glory (Ipomoea hederacea); test: Test G Post-Emergence Protocol; conditions: Ipomoea, post-emergence, 312 h, read-out: Morningglory, Ivy-leaved damage rating; for pest or weed control at 15.625 g/ha: 15.625 g ai/ha, evaluated after 13 days (100=total damage to plant; 0=no damage to plant); for pest or weed control at 62.5 g/ha: 62.5 g ai/ha; for pest or weed control at 62.5 g/ha / pest or weed control at 250 g/ha: evaluated after 13 days, 100=total damage to plant, 0=no damage to plant; for pest or weed control at 250 g/ha: 250 g ai/ha
Method in brief: as §2

[11] = test system: redroot pigweed (Amaranthus retroflexus); test: Test G Post-Emergence Protocol; conditions: Amaranthus retroflexus, post-emergence, 312 h, read-out: Pigweed, Redroot damage rating; for pest or weed control at 15.625 g/ha: 15.625 g ai/ha, evaluated after 13 days (100=total damage to plant; 0=no damage to plant); for pest or weed control at 62.5 g/ha: 62.5 g ai/ha; for pest or weed control at 62.5 g/ha / pest or weed control at 250 g/ha: evaluated after 13 days, 100=total damage to plant, 0=no damage to plant; for pest or weed control at 250 g/ha: 250 g ai/ha
Method in brief: as §2

[12] = test system: velvetleaf (Abutilon theophrasti); test: Test G Post-Emergence Protocol; conditions: Abutilon theophrasti, post-emergence, 312 h, read-out: Velvetleaf damage rating; for pest or weed control at 15.625 g/ha: 15.625 g ai/ha, evaluated after 13 days (100=total damage to plant; 0=no damage to plant); for pest or weed control at 62.5 g/ha: 62.5 g ai/ha; for pest or weed control at 62.5 g/ha / pest or weed control at 250 g/ha: evaluated after 13 days, 100=total damage to plant, 0=no damage to plant; for pest or weed control at 250 g/ha: 250 g ai/ha
Method in brief: as §2

Row | Structure (SMILES) | pest or weed control at 15.625 g/ha [1] | pest or weed control at 62.5 g/ha [1] | pest or weed control at 250 g/ha [1] | plant injury at 15.625 g/ha (corn (Zea mays) [2]) | plant injury at 62.5 g/ha (corn (Zea mays) [2]) | plant injury at 250 g/ha (corn (Zea mays) [2]) | pest or weed control at 15.625 g/ha [3] | pest or weed control at 62.5 g/ha [3] | pest or weed control at 250 g/ha [3] | pest or weed control at 15.625 g/ha [4] | pest or weed control at 62.5 g/ha [4] | pest or weed control at 250 g/ha [4] | pest or weed control at 15.625 g/ha [5] | pest or weed control at 62.5 g/ha [5] | pest or weed control at 250 g/ha [5] | pest or weed control at 15.625 g/ha [6] | pest or weed control at 62.5 g/ha [6] | pest or weed control at 250 g/ha [6] | pest or weed control at 15.625 g/ha [7] | pest or weed control at 62.5 g/ha [7] | other results
1 | CN1C[C@@H](c2ccc(C(F)(F)F)cc2)[C@H](C(=O)Nc2ccc(F)nc2F)C1=O (racemic) [Compound 1650] | 10% | 70% | 90% | 0% | 0% | 80% | 40% | 90% | 90% | 0% | 0% | 0% | 0% | 70% | 80% | 0% | 0% | 50% | 40% | 80% | pest or weed control at 250 g/ha [7]: 80%; plant injury at 15.625 g/ha (corn (Zea mays) [8]): 10%; plant injury at 62.5 g/ha (corn (Zea mays) [8]): 50%; plant injury at 250 g/ha (corn (Zea mays) [8]): 70%; pest or weed control at 15.625 g/ha [9]: 70%; pest or weed control at 62.5 g/ha [9]: 80%; pest or weed control at 250 g/ha [9]: 80%; pest or weed control at 15.625 g/ha [10]: 20%; pest or weed control at 62.5 g/ha [10]: 10%; pest or weed control at 250 g/ha [10]: 20%; pest or weed control at 15.625 g/ha [11]: 10%; pest or weed control at 62.5 g/ha [11]: 70%; pest or weed control at 250 g/ha [11]: 80%; pest or weed control at 15.625 g/ha [12]: 0%; pest or weed control at 62.5 g/ha [12]: 20%; pest or weed control at 250 g/ha [12]: 40%
2 | CN1C[C@@H](c2ccc(C(F)(F)F)cc2)[C@H](C(=O)Nc2ccncc2F)C1=O (racemic) [Compound 1652] | 0% | 0% | 0% | 0% | 0% | 10% | 0% | 10% | 30% | 0% | 0% | 0% | 0% | 0% | 0% | 0% | 0% | 0% | 0% | 20% | pest or weed control at 250 g/ha [7]: 30%; plant injury at 15.625 g/ha (corn (Zea mays) [8]): 0%; plant injury at 62.5 g/ha (corn (Zea mays) [8]): 0%; plant injury at 250 g/ha (corn (Zea mays) [8]): 0%; pest or weed control at 15.625 g/ha [9]: 0%; pest or weed control at 62.5 g/ha [9]: 20%; pest or weed control at 250 g/ha [9]: 40%; pest or weed control at 15.625 g/ha [10]: 0%; pest or weed control at 62.5 g/ha [10]: 0%; pest or weed control at 250 g/ha [10]: 0%; pest or weed control at 15.625 g/ha [11]: 0%; pest or weed control at 62.5 g/ha [11]: 0%; pest or weed control at 250 g/ha [11]: 0%; pest or weed control at 15.625 g/ha [12]: 0%; pest or weed control at 62.5 g/ha [12]: 0%; pest or weed control at 250 g/ha [12]: 0%
3 | CN1C[C@@H](c2ccc(C(F)(F)F)cc2)[C@H](C(=O)Nc2ccc(F)nn2)C1=O (racemic) [Compound 1655] | 0% | 0% | 0% | 0% | 0% | 0% | 0% | 0% | 30% | 0% | 0% | 0% | 0% | 0% | 0% | 0% | 0% | 0% | 0% | 20% | pest or weed control at 250 g/ha [7]: 20%; plant injury at 15.625 g/ha (corn (Zea mays) [8]): 0%; plant injury at 62.5 g/ha (corn (Zea mays) [8]): 0%; plant injury at 250 g/ha (corn (Zea mays) [8]): 0%; pest or weed control at 15.625 g/ha [9]: 0%; pest or weed control at 62.5 g/ha [9]: 30%; pest or weed control at 250 g/ha [9]: 30%; pest or weed control at 15.625 g/ha [10]: 0%; pest or weed control at 62.5 g/ha [10]: 0%; pest or weed control at 250 g/ha [10]: 0%; pest or weed control at 15.625 g/ha [11]: 0%; pest or weed control at 62.5 g/ha [11]: 0%; pest or weed control at 250 g/ha [11]: 40%; pest or weed control at 15.625 g/ha [12]: 0%; pest or weed control at 62.5 g/ha [12]: 0%; pest or weed control at 250 g/ha [12]: 0%
